Patent publication US10869878B2, “Vaginal composition and use thereof” (SINGAPORE ZE&Z INTERNATIONAL PTE. LTD, priority 2014, dated 2020)

Columns and labels:
[1] = system: Bifidobacteria in the secretions from BV patients; assay: Selective promotion of carbohydrate containing gels for the growth of Bifidobacteria (Experimental Example 4); type: cell-based; conditions: secretions from 20 BV patients; 1% (w/v) carbohydrate gel, 48 hrs slightly aerobic
Procedure: (3) After sampling, the vaginal secretion specimens from BV patients meeting the criteria of inclusion were immediately inoculated to the above 4 gels containing a carbohydrate, slightly aerobically incubated at 37° C. for 48 hrs, then transferred to a plate containing improved MRS with 1% (w/v) glucose and 5% (w/v) calf serum, slightly aerobically incubated for 20-48 hrs, isolated, purified and multiplied. The strain was identified by 16s rDNA sequencing.

BV-associated bacteria = assay: Acid production by BV-associated bacteria in semi-solid agars containing a carbohydrate, anaerobic incubation (Experimental Example 2); type: cell-based; conditions: 24 hrs anaerobic, 37° C., 1.5% (w/v) carbohydrate, initial pH 5.4
Source text: (1) Grouping in experiment: • (1) Glucose group: containing 1.5% (w/v) glucose, MRS basal medium without carbohydrate, 5% (w/v) calf serum, and 0.45% (w/v) agar, pH5.4; • (2) Fructose group: containing 1.5% (w/v) fructose, MRS basal medium without carbohydrate, 5% (w/v) calf serum, and 0.45% (w/v) agar, pH5.4; • (3) Mannose group: containing 1.5% (w/v) mannose, MRS basal medium without carbohydrate, 5% (w/v) calf serum, and 0.45% (w/v) agar, pH5.4; • (4) Sucrose group: containing 1.5% (w/v) sucrose, MRS basal medium without carbohydrate, 5% (w/v) calf serum, and 0.45% (w/v) agar, pH5.4; • (5) Maltose group: containing 1.5% (w/v) maltose, MRS basal medium without carbohydrate, 5% (w/v) calf serum, and 0.45% (w/v) agar, pH5.4; • (6) Isomaltose group: containing 1.5% (w/v) isomaltose, MRS basal medium without carbohydrate, 5% (w/v) calf serum, and 0.45% (w/v) agar, pH5.4; and • (7) Isomaltulose group: containing 1.5% (w/v) isomaltulose, MRS basal medium without carbohydrate, 5% (w/v) calf serum, and 0.45% (w/v) agar, pH5.4.
The semi-solid agar of each group was formulated essentially following the method described in Composition Example 1, then sterilized, added with calf serum, and packed in test tubes in a specification of 5 g/tube, for late use.
(2) Secretion specimens from BV patients: vaginal secretions from 5 BV patients; and the criteria of inclusion are: • (1) conforming to the Amsel clinical criteria of BV diagnosis, wherein the pH value of the vaginal secretions was >4.6; • (2) after smearing, Gram staining and microscopical examination of vaginal secretions, Nugent score ≥7; and • (3) no other vaginosis and no antimicrobial agent is used within two weeks.
(3) After sampling, the secretion specimens from BV patients meeting the criteria of inclusion were immediately inoculated to the above 7 aseptic semi-solid agars containing a carbohydrate at the bedside and anaerobically incubated at 37° C. for 24 hrs. The pH values of the agar matrices are detected with a precise pH test paper.

Row | SMILES | number of samples positive for Bifidobacterium bifidum [1] | number of samples positive for Bifidobacterium breve [1] | number of samples positive for Bifidobacterium dentium [1] | number of samples positive for Bifidobacterium longum [1] | samples positive for Bifidobacteria, In total [1] | pH of the semi-solid agar (BV-associated bacteria; Specimen 1) | pH of the semi-solid agar (BV-associated bacteria; Specimen 2) | pH of the semi-solid agar (BV-associated bacteria; Specimen 3) | pH of the semi-solid agar (BV-associated bacteria; Specimen 4) | pH of the semi-solid agar (BV-associated bacteria; Specimen 5)
1 | OC[C@H]1O[C@H](OC[C@H]2OC(O)(CO)[C@@H](O)[C@@H]2O)[C@H](O)[C@@H](O)[C@@H]1O (stereo partly drawn) [Isomaltulose, isomaltulose] | 0 | 0 | 0 | 0 | 0 | 3.8 | 3.8 | 3.8 | 3.8 | 3.8
2 | OC[C@H]1O[C@@](CO)(O[C@H]2O[C@H](CO)[C@@H](O)[C@H](O)[C@H]2O)[C@@H](O)[C@@H]1O [Sucrose, sucrose] | 0 | 0 | 0 | 0 | 0 | 4.1-4.4 | 3.8-4.1 | 3.8 | 4.1 | 3.8
3 | OC[C@H]1O[C@H](OC[C@H]2OC(O)[C@H](O)[C@@H](O)[C@@H]2O)[C@H](O)[C@@H](O)[C@@H]1O (stereo partly drawn) [Isomaltose, isomaltose] | 0 | 0 | 0 | 0 | 0 | 3.8-4.1 | 4.1 | 3.8 | 3.8 | 3.8
